# Assay results taken from patent publication US11819572B2, “Treatment of pain by administration of sustained-release liposomal anesthetic compositions” (Pacira Pharmaceuticals, Inc., priority 2020, dated 2023).
# Assays:
# [1] = system: Beagle dogs; test: Intravenous administration to Beagle dogs of bupivacaine and EXPAREL: adverse events and cardiology; assay type: in vivo, Beagle dog
# Protocol: a) Intravenous (IV) Administration to Beagle Dogs of (a) Bupivacaine and (b) EXPAREL®:
# Free bupivacaine was administered to dogs in an amount equivalent to 0.75 mg/kg and to 1.5 mg/kg of bupivacaine. Three dogs (one that was administered 0.75 mg/kg, and two that were administered 1.5 mg/kg) experienced side-effects such as convulsions, tremors, increased respiration and/or emesis (Table 1). In a separate experiment, EXPAREL® was administered to dogs in the same amount as above. […] A 3-fold higher dose of EXPAREL® (that is, a dose equivalent to 4.5 mg/kg of bupivacaine) was then administered to the dogs.
# [2] = system: rats; test: Intravenous administration to rats of bupivacaine and EXPAREL: tolerability; assay type: in vivo
# Protocol: The following is a summary of the results from two pre-clinical studies that compared the tolerability and PK profiles for non-liposomal bupivacaine vs EXPAREL®
# Improved toleration was attributed to the reduced peak plasma levels of bupivacaine observed in animals following administration of EXPAREL® vs non-liposomal bupivacaine. 1) Intravenous (IV) Administration to Rats of (a) Bupivacaine and (b) EXPAREL®:
# Free bupivacaine was administered to three rats in an amount equivalent to 1.0, 1.75 and 2.5 mg/kg of bupivacaine. Two rats died, corresponding to a 67% mortality rate. In a separate experiment, EXPAREL® was administered to rats in an amount equivalent to 2.5, 5.0 and 7.5 mg/kg of bupivacaine. […] The NOELs (no observable effect levels) determined for EXPAREL® and for free bupivacaine in this study were 7.5 mg/kg and 1.0 mg/kg, respectively.
# [3] = Bupivacaine plasma pharmacokinetics after intra-arterial (IA) administration in Beagle dogs; assay type: in vivo; settings: Beagle dog plasma bupivacaine, 0.1 mg/kg, Day 1, mean
# Protocol: b) Intra-Arterial Administration to Beagle Dogs of (a) Bupivacaine and (b) EXPAREL®:
# (§1) The study was conducted in a manner analogous to the intravenous administration study described in a) above.
# [4] = in vivo; settings: beagle, dog, iv, 1.5 mg/kg
# Protocol: Without wishing to be held to any particular mechanism or theory, it is believed that the observed toxicity differences above are attributable to the differences in plasma bupivacaine levels of the groups of dogs receiving free bupivacaine and EXPAREL®, respectively. […] Similarly, the Cmax for dogs receiving the same dose as in (i)—i.e., (1.5 mg/kg) of EXPAREL®—was clearly lower than that of dogs receiving free bupivacaine. […] The difference in exposure between the two groups may also be seen by comparing the respective values of Cmax/dose. […] In contrast with the above differences in Cmax in the two groups, the total AUC/dose was similar in dogs receiving EXPAREL® as compared to dogs receiving free bupivacaine. In particular, the values for female dogs were 751 (ng-hr/mL)/(mg/kg) for EXPAREL® (1.5 mg/kg dose), 674 (ng-hr/mL)/(mg/kg) for EXPAREL® (4.5 mg/kg dose), and 738 (ng-hr/mL)/(mg/kg)) for free bupivacaine. The values for male dogs were 1510 (ng-hr/mL)/(mg/kg) for EXPAREL® (1.5 mg/kg dose), 826 (ng-hr/mL)/(mg/kg) for EXPAREL® (4.5 mg/kg dose), and 879 (ng-hr/mL)/(mg/kg) for free bupivacaine.
# as §1
# [5] = Beagle dogs, dose 0.75, 1.5 mg/kg (Group 2)
# [6] = three rats, 1.0, 1.75 and 2.5 mg/kg of bupivacaine
structure (smiles),measurement,setting,value
"CCCCN1CCCCC1C(=O)Nc1c(C)cccc1C (stereo not drawn) [free bupivacaine, bupivacaine]","Dogs that experienced side-effects such as convulsions, tremors, increased respiration and/or emesis",[1]; 0.75 mg/kg,one
same,"Dogs that experienced side-effects such as convulsions, tremors, increased respiration and/or emesis",[1]; 0.75 mg/kg and 1.5 mg/kg of bupivacaine (all),Three dogs
same,"Dogs that experienced side-effects such as convulsions, tremors, increased respiration and/or emesis",[1]; 1.5 mg/kg,two
same,"Cardiology: Change in heart rate (BMP, avg)",[1]; [5],56 ± 31 BMP
same,No. of animals exhibiting clinical symptoms: Increased respiration,[1]; [5],2
same,No. of animals exhibiting clinical symptoms: Sustained convulsions,[1]; [5],1
same,No. of animals exhibiting clinical symptoms: Tremors,[1]; [5],1
same,No. of animals exhibiting clinical symptoms: Unsustained convulsions,[1]; [5],0
same,No. of animals exhibiting clinical symptoms: Vomiting,[1]; [5],2
same,NOEL (no observable effect level),[2]; rats,1.0 mg/kg
same,Mortality rate,[2]; [6],67%
same,Rats that died,[2]; [6],Two rats died
same,AUC(0-t),[3]; Female,62.6 ng·h/mL
same,AUC(0 − t)/D,[3]; Female,626 ng·h/mL/mg/kg
same,Cmax,[3]; Female,187 ng/mL
same,Cmax/D,[3]; Female,1870 ng·kg/mL/mg
same,half-life,[3]; Female,16 min
same,AUC(0-t),[3]; Male,71.1 ng·h/mL
same,AUC(0 − t)/D,[3]; Male,711 ng·h/mL/mg/kg
same,Cmax,[3]; Male,205 ng/mL
same,Cmax/D,[3]; Male,2050 ng·kg/mL/mg
same,half-life,[3]; Male,15.8 min
same,AUC(0-t),[4]; female,1110 ng·h/mL
same,AUC(0 − t)/D,[4]; female,738 ng·h/mL/mg/kg
same,Cmax,[4]; female,2050 ng/mL
same,Cmax/D,[4]; female,1370 ng·kg/mL/mg
same,Cmax/dose,[4]; female,1.37
same,half-life,[4]; female,28.4 min
same,total AUC/dose,[4]; female,738 (ng-hr/mL)/(mg/kg)
same,AUC(0-t),[4]; male,1320 ng·h/mL
same,AUC(0 − t)/D,[4]; male,879 ng·h/mL/mg/kg
same,Cmax,[4]; male,2750 ng/mL
same,Cmax/D,[4]; male,1830 ng·kg/mL/mg
same,Cmax/dose,[4]; male,1.83
same,half-life,[4]; male,31.2 min
same,total AUC/dose,[4]; male,879 (ng-hr/mL)/(mg/kg)
